Results from ChEMBL document CHEMBL5149994, “Anticancer potential of indirubins in medicinal chemistry: Biological activity, structural modification, and structure-activity relationship” (Eur J Med Chem, 2021).
Each block holds one compound with its values, some of them ahead of it.

Legend:
[1] = biological target: Glycogen synthase kinase-3 (Sus scrofa, UniProt B2LUN4+I6LNT8); test: Inhibition of porcine brain GSK-3alpha/beta incubated for 30 mins in presence of [33p]-gamma ATP by scintillation counter analysis
Aurora kinase B = Aurora kinase B (Homo sapiens, UniProt Q96GD4); test: Inhibition of Aurora B (unknown origin)
Chain of Aurora kinase B (Q96GD4 whole entry): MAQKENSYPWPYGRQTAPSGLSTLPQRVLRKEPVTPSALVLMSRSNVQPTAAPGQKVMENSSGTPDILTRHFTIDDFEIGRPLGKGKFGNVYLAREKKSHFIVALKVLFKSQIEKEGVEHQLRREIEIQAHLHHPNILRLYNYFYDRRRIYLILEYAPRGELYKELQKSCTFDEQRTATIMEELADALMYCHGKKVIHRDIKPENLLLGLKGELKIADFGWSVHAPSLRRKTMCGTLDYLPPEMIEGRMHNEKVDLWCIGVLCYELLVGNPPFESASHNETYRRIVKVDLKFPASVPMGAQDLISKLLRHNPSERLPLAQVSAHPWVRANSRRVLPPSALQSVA

[2] = Antiproliferative activity against human TT cells assessed as cell growth inhibition measured after 48 hrs by Cell titer-Glo assay; format: functional, cell-based
Aurora kinase C = Aurora kinase C (Homo sapiens, UniProt Q9UQB9); test: Inhibition of Aurora C (unknown origin)
Chain of Aurora kinase C (Q9UQB9 whole entry): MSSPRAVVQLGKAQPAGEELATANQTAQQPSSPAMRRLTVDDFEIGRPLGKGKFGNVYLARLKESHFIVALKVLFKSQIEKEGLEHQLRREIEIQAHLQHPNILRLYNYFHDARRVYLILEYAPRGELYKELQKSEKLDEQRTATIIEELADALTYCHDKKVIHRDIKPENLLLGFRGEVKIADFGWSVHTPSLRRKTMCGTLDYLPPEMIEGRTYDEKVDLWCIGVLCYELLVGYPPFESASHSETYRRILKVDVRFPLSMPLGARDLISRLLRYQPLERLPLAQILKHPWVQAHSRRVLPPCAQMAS

MCF7 [3] = test: Antiproliferative activity against human MCF7 cells assessed as cell growth inhibition; format: functional, cell-based
LXFL 529 [4] = test: Antiproliferative activity against human LXFL 529 cells assessed as cell growth inhibition; format: functional, cell-based
HCT-116 = test: Antiproliferative activity against human HCT-116 cells assessed as cell growth inhibition; format: functional, cell-based
CT26 [5] = test: Antitumor activity against mouse CT26 cells in BALB/c mouse assessed as reduction in tumour volume at 200 mg/kg, ILES daily measured after 15 days relative to control; format: functional; parameters: scale not given: the % may be the effect or the level left; details: time 15 day
[6] = biological target: Proto-oncogene tyrosine-protein kinase Src (Homo sapiens, UniProt P12931); test: Inhibition of c-SRC in human MDA-MB-468 cells in presence of [gamma-32P]ATP and ATP by immunoprecipitation method; format: cell-based
Chain of Proto-oncogene tyrosine-protein kinase Src (P12931 2-536 limits assumed): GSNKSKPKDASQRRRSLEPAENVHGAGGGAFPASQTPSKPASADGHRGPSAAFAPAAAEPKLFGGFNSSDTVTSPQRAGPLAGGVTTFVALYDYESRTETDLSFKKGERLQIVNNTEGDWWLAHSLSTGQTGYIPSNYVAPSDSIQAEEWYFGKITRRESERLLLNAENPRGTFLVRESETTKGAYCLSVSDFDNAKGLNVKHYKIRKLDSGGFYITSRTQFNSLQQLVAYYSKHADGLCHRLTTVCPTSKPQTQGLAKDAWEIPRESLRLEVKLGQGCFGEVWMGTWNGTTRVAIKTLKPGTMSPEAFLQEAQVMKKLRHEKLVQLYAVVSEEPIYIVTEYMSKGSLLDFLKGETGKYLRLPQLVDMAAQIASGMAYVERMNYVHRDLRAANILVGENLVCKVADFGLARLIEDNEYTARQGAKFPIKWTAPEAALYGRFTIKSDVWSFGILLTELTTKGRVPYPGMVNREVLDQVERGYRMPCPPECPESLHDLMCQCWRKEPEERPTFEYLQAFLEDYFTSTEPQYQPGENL

[7] = biological target: Vascular endothelial growth factor receptor 2 (Homo sapiens, UniProt P35968); test: Inhibition of VEGFR2 (unknown origin)
Chain of Vascular endothelial growth factor receptor 2 (P35968 whole entry): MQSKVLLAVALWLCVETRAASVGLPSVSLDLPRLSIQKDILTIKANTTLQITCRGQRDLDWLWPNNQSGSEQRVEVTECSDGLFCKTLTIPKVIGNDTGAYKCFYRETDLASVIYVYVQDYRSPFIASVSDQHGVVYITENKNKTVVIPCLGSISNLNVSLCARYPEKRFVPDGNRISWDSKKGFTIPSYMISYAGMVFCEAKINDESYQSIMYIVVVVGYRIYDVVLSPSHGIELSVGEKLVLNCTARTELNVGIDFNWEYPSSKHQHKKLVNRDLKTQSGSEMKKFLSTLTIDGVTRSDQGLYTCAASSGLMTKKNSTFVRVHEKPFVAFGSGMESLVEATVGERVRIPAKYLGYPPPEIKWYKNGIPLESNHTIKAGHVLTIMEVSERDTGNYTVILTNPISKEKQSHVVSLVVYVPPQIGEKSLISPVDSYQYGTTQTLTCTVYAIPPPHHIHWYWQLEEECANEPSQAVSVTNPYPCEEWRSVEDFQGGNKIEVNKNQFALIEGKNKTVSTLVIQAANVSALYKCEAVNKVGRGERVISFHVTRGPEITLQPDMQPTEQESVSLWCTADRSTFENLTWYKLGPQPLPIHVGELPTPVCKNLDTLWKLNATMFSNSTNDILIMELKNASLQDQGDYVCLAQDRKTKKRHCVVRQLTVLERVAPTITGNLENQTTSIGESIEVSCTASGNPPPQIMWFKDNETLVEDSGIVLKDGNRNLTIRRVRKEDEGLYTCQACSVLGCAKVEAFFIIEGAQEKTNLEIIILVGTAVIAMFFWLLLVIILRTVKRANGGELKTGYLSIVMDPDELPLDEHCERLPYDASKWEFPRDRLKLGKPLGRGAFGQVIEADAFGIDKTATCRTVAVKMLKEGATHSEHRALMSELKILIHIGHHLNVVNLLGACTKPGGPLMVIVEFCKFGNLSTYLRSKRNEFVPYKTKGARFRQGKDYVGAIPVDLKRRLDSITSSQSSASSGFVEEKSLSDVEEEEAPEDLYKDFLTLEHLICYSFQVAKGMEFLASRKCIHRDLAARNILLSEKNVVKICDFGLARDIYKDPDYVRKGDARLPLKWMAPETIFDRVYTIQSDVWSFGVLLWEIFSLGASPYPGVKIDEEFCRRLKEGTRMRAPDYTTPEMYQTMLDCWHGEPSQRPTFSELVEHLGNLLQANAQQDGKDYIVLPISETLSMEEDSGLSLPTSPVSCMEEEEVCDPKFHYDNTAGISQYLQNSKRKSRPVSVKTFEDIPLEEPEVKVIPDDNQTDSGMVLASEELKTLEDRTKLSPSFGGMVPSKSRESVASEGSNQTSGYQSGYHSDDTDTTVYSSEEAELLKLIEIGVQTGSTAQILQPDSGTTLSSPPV

CT26 [8] = test: Antitumor activity against mouse CT26 cells in BALB/c mouse assessed as reduction in tumour weight at 200 mg/kg, ILES daily measured after 15 days relative to control; format: functional; parameters: scale not given: the % may be the effect or the level left; details: time 15 day
[9] = Antitumor activity against human PDAC cells xenografted in BALB/c nu/nu mouse assessed as reduction in tumour weight at 40 mg/kg, ip treated every other day for 6 days relative to control; format: functional; parameters: scale not given: the % may be the effect or the level left; details: time 6 day
[10] = biological target: T1, Receptor-type tyrosine-protein kinase FLT3 (Homo sapiens, UniProt P36888); test: Inhibition of FLT3 (unknown origin)
T1 sequence (P36888 whole entry): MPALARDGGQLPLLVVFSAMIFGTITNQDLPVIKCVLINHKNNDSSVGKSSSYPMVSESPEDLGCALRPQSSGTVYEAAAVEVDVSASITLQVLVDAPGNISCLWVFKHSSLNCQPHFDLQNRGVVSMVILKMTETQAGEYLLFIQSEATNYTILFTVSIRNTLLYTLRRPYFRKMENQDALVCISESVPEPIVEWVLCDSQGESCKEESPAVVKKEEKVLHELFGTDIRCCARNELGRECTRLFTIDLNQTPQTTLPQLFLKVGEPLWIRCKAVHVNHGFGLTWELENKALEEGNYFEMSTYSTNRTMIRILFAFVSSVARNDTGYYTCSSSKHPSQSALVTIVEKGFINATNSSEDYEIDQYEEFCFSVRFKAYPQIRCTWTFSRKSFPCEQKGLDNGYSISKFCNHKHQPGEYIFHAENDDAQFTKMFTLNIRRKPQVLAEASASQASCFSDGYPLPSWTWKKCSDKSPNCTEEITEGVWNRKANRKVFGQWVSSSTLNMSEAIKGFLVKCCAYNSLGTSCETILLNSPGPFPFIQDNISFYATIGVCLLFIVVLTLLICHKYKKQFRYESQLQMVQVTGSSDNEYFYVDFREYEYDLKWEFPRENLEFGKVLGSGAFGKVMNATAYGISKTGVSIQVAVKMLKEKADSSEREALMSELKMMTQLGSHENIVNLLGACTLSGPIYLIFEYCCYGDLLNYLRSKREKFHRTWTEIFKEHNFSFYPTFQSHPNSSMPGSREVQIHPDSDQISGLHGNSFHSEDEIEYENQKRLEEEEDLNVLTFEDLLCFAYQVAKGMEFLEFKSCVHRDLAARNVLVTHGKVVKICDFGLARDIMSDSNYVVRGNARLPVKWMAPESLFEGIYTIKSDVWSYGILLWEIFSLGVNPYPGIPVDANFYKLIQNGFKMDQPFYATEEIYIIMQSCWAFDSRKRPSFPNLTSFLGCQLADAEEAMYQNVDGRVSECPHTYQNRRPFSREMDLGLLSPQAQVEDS

MCF7 [11] = test: Cytotoxicity against human MCF7 cells assessed as cell growth inhibition measured after 3 days by SRB assay; format: functional, cell-based; details: MCF7, 72 h
[12] = biological target: T1, Receptor-type tyrosine-protein kinase FLT3; test: Inhibition of recombinant FLT3 (unknown origin) in presence of ATP by HTRF assay
A549 [13] = test: Antitumor activity against human A549 cells xenografted in CD1 mouse assessed as reduction in tumour volume at 6 mg/kg, sc treated 3 times a week for 25 days in presence of thymoquinone relative to control; format: functional; parameters: scale not given: the % may be the effect or the level left; details: time 25 day
CDK2/Cyclin A2 [14] = biological target: T2, CDK2/Cyclin A2 (Homo sapiens, UniProt P24941); test: Inhibition of CDK2/cyclin A (unknown origin); format: protein-complex assay
[15] = biological target: Tyrosine-protein kinase Lck (Homo sapiens, UniProt P06239); test: Inhibition of LCK (unknown origin) in presence of ATP
Chain of Tyrosine-protein kinase Lck (P06239 whole entry): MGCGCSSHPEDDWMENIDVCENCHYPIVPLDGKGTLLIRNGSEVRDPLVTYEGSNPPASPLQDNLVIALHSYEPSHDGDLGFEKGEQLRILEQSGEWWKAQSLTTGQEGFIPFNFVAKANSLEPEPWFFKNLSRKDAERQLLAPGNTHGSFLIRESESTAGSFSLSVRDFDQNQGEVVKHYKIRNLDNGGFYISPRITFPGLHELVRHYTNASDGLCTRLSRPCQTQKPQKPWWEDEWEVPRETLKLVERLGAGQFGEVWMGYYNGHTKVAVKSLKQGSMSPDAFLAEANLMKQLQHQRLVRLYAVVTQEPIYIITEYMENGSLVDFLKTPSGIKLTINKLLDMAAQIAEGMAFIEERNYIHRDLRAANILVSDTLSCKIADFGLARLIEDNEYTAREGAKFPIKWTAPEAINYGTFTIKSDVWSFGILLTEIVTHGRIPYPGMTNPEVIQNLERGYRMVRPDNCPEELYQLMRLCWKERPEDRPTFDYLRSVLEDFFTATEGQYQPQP

MV4-11 = test: Antiproliferative activity against human MV4-11 cells assessed as cell growth inhibition measured after 72 hrs by tetrazolium staining based WST-8 assay; format: functional; details: MV4-11, 72 h
LXFL 529 [16] = test: Cytotoxicity against human LXFL 529 cells assessed as cell growth inhibition measured after 3 days by SRB assay; format: functional, cell-based; details: LXFL 529, 72 h
HL-60 = test: Antiproliferative activity against human HL-60 cells assessed as cell growth inhibition measured after 3 days by trypan blue staining based inverted microscope method; format: functional; details: HL-60, 72 h, time 3 day
HUVEC = test: Antiproliferative activity against HUVEC cells assessed as cell growth inhibition measured after 3 days by [3H]-thymidine incorporation assay; format: functional, cell-based; details: Homo sapiens
[17] = Inhibition of CDK2/cyclin E (unknown origin); parameters: species or system Homo sapiens
[18] = Antiproliferative activity against human NOZ cells assessed as cell growth inhibition measured upto 72 hrs by CCK-8 assay; format: functional, cell-based
[19] = biological target: Fibroblast growth factor receptor 1 (Homo sapiens, UniProt P11362); test: Inhibition of FGFR1 (unknown origin)
Chain of Fibroblast growth factor receptor 1 (P11362 whole entry): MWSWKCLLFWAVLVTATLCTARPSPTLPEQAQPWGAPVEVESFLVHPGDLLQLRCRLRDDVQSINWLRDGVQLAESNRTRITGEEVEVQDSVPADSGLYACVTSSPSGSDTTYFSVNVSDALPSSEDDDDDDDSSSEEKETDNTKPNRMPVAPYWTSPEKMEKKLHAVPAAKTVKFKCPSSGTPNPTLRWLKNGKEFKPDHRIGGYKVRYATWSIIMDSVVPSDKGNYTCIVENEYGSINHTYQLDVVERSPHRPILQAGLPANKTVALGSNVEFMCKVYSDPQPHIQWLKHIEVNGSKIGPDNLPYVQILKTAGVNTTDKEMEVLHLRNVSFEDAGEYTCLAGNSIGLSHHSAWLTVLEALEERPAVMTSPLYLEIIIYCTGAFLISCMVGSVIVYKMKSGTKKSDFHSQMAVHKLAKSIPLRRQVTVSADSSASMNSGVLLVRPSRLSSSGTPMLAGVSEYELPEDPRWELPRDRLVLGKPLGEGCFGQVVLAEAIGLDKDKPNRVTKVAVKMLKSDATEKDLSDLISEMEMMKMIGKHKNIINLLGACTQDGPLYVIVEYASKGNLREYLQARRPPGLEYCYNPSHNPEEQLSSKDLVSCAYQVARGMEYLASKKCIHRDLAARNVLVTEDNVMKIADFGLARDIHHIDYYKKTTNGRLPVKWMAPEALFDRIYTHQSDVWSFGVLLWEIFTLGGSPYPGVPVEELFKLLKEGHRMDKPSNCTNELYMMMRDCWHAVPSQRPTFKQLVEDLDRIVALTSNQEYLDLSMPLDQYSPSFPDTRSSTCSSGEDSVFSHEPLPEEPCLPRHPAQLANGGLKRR

[20] = Inhibition of VEGFR (unknown origin); parameters: species or system Homo sapiens
[21] = biological target: Cyclin-dependent kinase 4/cyclin D1 (Homo sapiens, UniProt P11802); test: Inhibition of CDK4/cyclin D1 (unknown origin); format: protein-complex assay
Chain of Cyclin-dependent kinase 4/cyclin D1 (P11802 whole entry): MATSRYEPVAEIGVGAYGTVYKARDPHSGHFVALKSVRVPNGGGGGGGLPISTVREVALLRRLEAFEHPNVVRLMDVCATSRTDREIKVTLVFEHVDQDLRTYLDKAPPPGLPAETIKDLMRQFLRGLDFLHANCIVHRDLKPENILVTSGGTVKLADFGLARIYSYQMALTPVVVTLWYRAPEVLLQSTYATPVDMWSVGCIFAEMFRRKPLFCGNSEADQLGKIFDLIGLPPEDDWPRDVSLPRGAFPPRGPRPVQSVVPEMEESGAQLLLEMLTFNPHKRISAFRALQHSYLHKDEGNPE
Chain of Cyclin-dependent kinase 4/cyclin D1 (P24385 whole entry, further chain): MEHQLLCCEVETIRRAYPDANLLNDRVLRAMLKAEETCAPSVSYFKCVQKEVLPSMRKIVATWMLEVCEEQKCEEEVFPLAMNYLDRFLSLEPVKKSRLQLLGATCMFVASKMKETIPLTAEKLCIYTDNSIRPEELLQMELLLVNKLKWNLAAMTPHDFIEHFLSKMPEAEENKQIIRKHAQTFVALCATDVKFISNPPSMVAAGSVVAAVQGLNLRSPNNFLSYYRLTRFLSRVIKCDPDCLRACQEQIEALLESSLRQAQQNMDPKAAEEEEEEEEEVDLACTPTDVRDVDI

[22] = biological target: Receptor-type tyrosine-protein kinase FLT3 (Homo sapiens, UniProt P36888, D835Y); test: Inhibition of recombinant FLT3 D835Y mutant (unknown origin) in presence of ATP by HTRF assay
[23] = biological target: Serine/threonine-protein kinase Sgk1 (Homo sapiens, UniProt O00141); test: Inhibition of SGK (unknown origin) in presence of ATP
Chain of Serine/threonine-protein kinase Sgk1 (O00141 whole entry): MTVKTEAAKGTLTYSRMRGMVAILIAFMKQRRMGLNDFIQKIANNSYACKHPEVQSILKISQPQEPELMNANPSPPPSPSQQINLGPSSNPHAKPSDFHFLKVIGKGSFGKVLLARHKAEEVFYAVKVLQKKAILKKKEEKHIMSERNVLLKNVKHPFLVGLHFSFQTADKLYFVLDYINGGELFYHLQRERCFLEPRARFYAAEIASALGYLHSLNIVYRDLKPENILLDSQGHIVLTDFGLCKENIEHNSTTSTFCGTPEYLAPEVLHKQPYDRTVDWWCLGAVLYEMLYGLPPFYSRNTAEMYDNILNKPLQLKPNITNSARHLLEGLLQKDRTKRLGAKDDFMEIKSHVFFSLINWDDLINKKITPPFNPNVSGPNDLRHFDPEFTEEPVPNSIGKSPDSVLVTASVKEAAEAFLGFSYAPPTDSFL

A549 [24] = test: Antitumor activity against human A549 cells xenografted in CD1 mouse assessed as reduction in tumour weight at 6 mg/kg, sc treated 3 times a week for 25 days in presence of thymoquinone relative to control; format: functional; parameters: scale not given: the % may be the effect or the level left; details: time 25 day
[25] = Antiproliferative activity against human OZ [Human cholangiocarcinoma] cells assessed as cell growth inhibition measured upto 72 hrs by CCK-8 assay; format: functional, cell-based
Danio rerio = species on record: Danio rerio; test: Antiangiogenic activity in transgenic zebrafish embryo assessed as inhibition of angiogenic vessel growth incubated for 24 hrs by FITC staining based analysis; format: functional, organism-based
CDK2/Cyclin A2 [26] = biological target: T2, CDK2/Cyclin A2; test: Inhibition of GST-fused human CDK2/cyclin A expressed in Escherichia coli using histone H1 as substrate in presence of [33p]-gamma ATP and MgATP
HuCCT-1 = test: Antiproliferative activity against human HuCCT-1 cells assessed as cell growth inhibition measured upto 72 hrs by CCK-8 assay; format: functional, cell-based; details: HuCCT-1, 72 h
[27] = biological target: Glycogen synthase kinase-3 (Homo sapiens, UniProt P49840+P49841); test: Inhibition of GSK3 (unknown origin); format: protein assay
Aurora kinase A = Aurora kinase A (Homo sapiens, UniProt O14965); test: Inhibition of Aurora A (unknown origin)
IMR-32 = test: Antiproliferative activity against human IMR-32 cells assessed as cell growth inhibition; format: functional, cell-based
SK-N-SH = test: Antiproliferative activity against human SK-N-SH cells assessed as cell growth inhibition; format: functional, cell-based

IC50 [1]: 32 µM
IC50 (Aurora kinase B): 4.6 µM
IC50 (Aurora kinase C): 0.1 µM
SMILES: O=C1Nc2c(Br)cccc2/C1=C1/Nc2ccccc2/C1=N\O
IC50 [2]: 4.1 µM

IC50 (MCF7 [3]): 1.2 µM
IC50 (HCT-116): 0.5 µM
SMILES: COc1ccc2c(c1)/C(=C1/Nc3ccccc3/C1=N\OCCO[C@@H]1O[C@H](CO)[C@@H](O)[C@H](O)[C@H]1O)C(=O)N2
IC50 (LXFL 529 [4]): 0.5 µM

IC50 [6]: 0.95 µM
IC50 (HCT-116): < 0.1 µM
IC50 [7]: 0.95 µM
SMILES: O=C1Nc2ccccc2/C1=C1/Nc2ccccc2/C1=N\OCC(O)CO (configuration not stated)
Activity (CT26 [5]): 49.3%
IC50 (LXFL 529 [4]): 0.9 µM
Activity (CT26 [8]): 46.8%

SMILES: COc1ccc2c(c1)/C(=C1/Nc3ccccc3/C1=N\O)C(=O)N2
Activity [9]: 60%

IC50 [10]: 0.101 µM
IC50 [12]: 0.079 µM
IC50 (CDK2/Cyclin A2 [14]): 0.44 µM
IC50 [15]: 0.3 µM
IC50 (MV4-11): 0.03 µM
GI50 (HL-60): 36.6 µM
IC50 [17]: 0.25 µM
IC50 [19]: 2.5 µM
IC50 [20]: 1.48 µM
IC50 [21]: 3.33 µM
IC50 [22]: 0.101 µM
IC50 [23]: 0.38 µM
IC50 (CDK2/Cyclin A2 [26]): 0.59 µM
SMILES: O=C1Nc2ccccc2/C1=C1/Nc2ccccc2/C1=N\O
IC50 (MCF7 [11]): 3.3 µM
Activity (A549 [13]): 83.5%
IC50 (LXFL 529 [16]): 3 µM
IC50 (HUVEC): 0.36 µM
IC50 [18]: 4.4 µM
Activity (A549 [24]): 66.7%
IC50 [25]: 4.7 µM
IC50 (Danio rerio): 0.31 µM
IC50 (HuCCT-1): 5 µM

IC50 [27]: 0.0013 µM
SMILES: Cl.Cl.O=C1Nc2cc(Br)ccc2/C1=C1/Nc2ccccc2/C1=N\OCCN1CCNCC1

IC50 (Aurora kinase B): 8 µM
IC50 (Aurora kinase A): 20 µM
IC50 (Aurora kinase C): 0.1 µM
SMILES: CC(=O)O/N=C1/C(=C2/C(=O)Nc3c(Br)cccc32)Nc2ccccc21

IC50 (SK-N-SH): 0.07 µM
SMILES: O=C1Nc2ccccc2/C1=C1/Nc2ccccc2/C1=N\OCC1CO1 (configuration not stated)
IC50 (IMR-32): 0.16 µM
